The source of these data is paper PMC3355305, “Localized Dimerization and Nucleoid Binding Drive Gradient Formation by the Bacterial Cell Division Inhibitor MipZ” (Molecular Cell, 2012).

In series [1] the test system is MipZ. Briefly: Transient kinetic (stopped-flow) analysis of mant nucleotide binding to wild-type MipZ. Also noted: species or system Caulobacter crescentus. As to conditions: for kon: 30°C, buffer P; for Kd: calculated KD = koff/kon; for koff: displacement by excess unlabeled nucleotide. The source says:
(§1) Once released from the dimeric complex, MipZ monomers must undergo nucleotide exchange to enter the next reaction cycle (Figure 2A). To clarify the requirements for the exchange reaction, we studied the nucleotide binding kinetics of MipZ by monitoring its interaction with methylanthraniloyl (mant)-labeled ADP and ATP analogs (Figure S3). Since the mant group blocks dimer formation, our measurements specifically focused on the initial nucleotide-binding step without interference from subsequent reactions.
(§2) Figure S3. Steady-state and transient kinetic analysis of nucleotide binding to MipZ, Related to Table 2.
(§3) (A) Fluorescence emission spectra of mant-ATP. MipZ (1 µM) and/or mant-ATP (60 µM) were mixed in buffer BC containing no (+ Mg2+) or 10 mM (- Mg2+) EDTA. Emission spectra were recorded in a PC1 photon-counting spectrofluorimeter (ISS) using fluorescence resonance energy transfer (FRET) and an excitation wavelength of 290 nm.
(§4) (B) Association of MipZ with mant nucleotides.
(§5) (data not shown), necessitating the use of ADP and ATP analogues that carried a fluorescent methylanthraniloyl (mant) group attached to the 2'- or 3'-hydroxy group of the ribose moiety. Due to the bulkiness of the mant group and a critical role of these hydroxy groups in MipZ dimerization, the modified nucleotides are predicted to block dimer formation, consistent with their failure to be hydrolyzed by MipZ or mediate MipZ self-association in the SPR assay (data not shown). This circumstance allowed us to focus the measurements on the initial nucleotide binding step without interference from subsequent reactions.
(§6) Interaction of the mant group with the protein surface led to a marked increase in fluorescence (panel A). Consistent with the easy accessibility of the nucleotide-binding site and the lack of major conformational changes, the transients recorded after rapid mixing of MipZ with mant nucleotides could be fitted to single-exponential equations, indicating single-step binding reactions.
(§7) Shown is a typical curve representing the change in mant fluorescence upon binding of mant-ATP (30 µM) to MipZ (1 µM).
(§8) Fitting of the data yielded a pseudo-first order rate constant (kobs) of 4.7 s-1.
(§9) (C) Determination of the second-order association rate constants (kon). The pseudo-first order rate constants for the association of […]
(§10) determining the second-order rate constant of the association reaction. Shown is a representative graph in which the kobs values measured for mant-ATP were plotted against the corresponding mant-ATP concentrations. Fitting of the data to the linear function kobs=kon[mant-ATP]+koff yielded a value of 6.8 x 104 M-1s-1 for kon.
(§11) (D) Dissociation of mant nucleotides from MipZ. In order to determine the dissociation rate constants (koff), we monitored the displacement of mant-labeled nucleotides from MipZ by an excess of unlabeled nucleotide. All transients obtained could be fitted to single-exponential functions. Shown is a typical curve representing the change in mant fluorescence upon dissociation of mant-ATP (30 µM) from MipZ (1 µM) in the presence of 2 mM ATP. […]
(§12) […]
(§13) (Murshudov et al. 1997) for apo-MipZ in crystal form 2. Transient kinetic analysis The structure of apo-MipZ in crystal form 1 was solved Transient kinetic experiments were conducted at 30°C by multiple-wavelength anomalous diffraction (MAD), in a Hi-Tech Scientific SF-61MX stopped-flow spectro- […]

In another series the test system is MipZ K13A. Briefly: Transient kinetic analysis of mant nucleotide binding to MipZ K13A. Also noted: species or system Caulobacter crescentus. As to conditions: for Kd: calculated KD = koff/kon.
Description: as §1, §2, §3, §4, §5, §6, §7, §8, §9, §10, §11, §12, §13

The test system of a further series is MipZ G14V. Description: Transient kinetic analysis of mant nucleotide binding to MipZ G14V. Also noted: species or system Caulobacter crescentus. As to conditions: for Kd: calculated KD = koff/kon.
Description: as §1, §2, §3, §4, §5, §6, §7, §8, §9, §10, §11, §12, §13

For series [2], the system named is MipZ-D42A. Description: Transient kinetic analysis of mant nucleotide binding to MipZ D42A. Details: species or system Caulobacter crescentus. As to conditions: for Kd: calculated KD = koff/kon.
Description: as §1, §2, §3, §4, §5, §6, §7, §8, §9, §10, §11, §12, §13

For the next series, the system named is MipZ-K18Q. Description: Transient kinetic analysis of mant nucleotide binding to MipZ K18Q. Details: species or system Caulobacter crescentus.
Description: as §1, §2, §3
(B) Association of MipZ with mant nucleotides. […]
as §6
Shown is a typical curve representing the change in mant fluorescence upon binding of mant-ATP (30 µM) to MipZ (1 µM). […]
determining the second-order rate constant of the association reaction. Shown is a representative graph in which the kobs values measured for mant-ATP were plotted against the corresponding mant-ATP concentrations. […]
(D) Dissociation of mant nucleotides from MipZ. In order to determine the dissociation rate constants (koff), we monitored the displacement of mant-labeled nucleotides from MipZ by an excess of unlabeled nucleotide. […] Shown is a typical curve representing the change in mant fluorescence upon dissociation of mant-ATP (30 µM) from MipZ (1 µM) in the presence of 2 mM ATP. […]

The target of series [3] is T1, MipZ-D42A (Caulobacter crescentus, UniProt Q9A6C9 1-278, D42A).
T1 sequence: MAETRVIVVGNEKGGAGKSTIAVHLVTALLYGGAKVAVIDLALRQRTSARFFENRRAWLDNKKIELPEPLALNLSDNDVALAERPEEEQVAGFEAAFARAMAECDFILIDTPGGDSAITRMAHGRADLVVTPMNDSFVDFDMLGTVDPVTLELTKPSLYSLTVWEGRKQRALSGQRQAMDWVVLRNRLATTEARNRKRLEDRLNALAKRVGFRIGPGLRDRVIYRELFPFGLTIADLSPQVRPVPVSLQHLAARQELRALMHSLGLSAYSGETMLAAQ
Description: SPR; ATP; SPR: buffer P2 or buffer BC (Mg2+-containing) with 2 mM nucleotide, composition not in material; EMSA: 1.25 mM nucleotide, 270 nM-5.6 uM protein, room temperature. As to conditions: protein: recombinant; chain copies: 2; label: biotin; blunt. (In general: In SPR one partner is held on a chip, and binding of the other changes the refractive index at the surface.)

Series [4] concerns the target T2, MipZ (Caulobacter crescentus, UniProt Q9A6C9 1-278).
T2 sequence: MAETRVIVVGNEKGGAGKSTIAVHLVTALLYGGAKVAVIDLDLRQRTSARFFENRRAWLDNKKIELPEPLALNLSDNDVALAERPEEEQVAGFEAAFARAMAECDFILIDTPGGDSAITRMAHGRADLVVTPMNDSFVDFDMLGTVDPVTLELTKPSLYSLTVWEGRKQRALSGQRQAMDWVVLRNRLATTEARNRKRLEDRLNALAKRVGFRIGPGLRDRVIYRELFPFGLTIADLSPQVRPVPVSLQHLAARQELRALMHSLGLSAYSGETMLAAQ
The description is as above. As to conditions: protein: recombinant; chain copies: 2; label: biotin; blunt.

Series [5] deals with the molecule itself. Description: SPR; ATP; printed as 0.83 min-1.
Series [6] deals with the molecule itself. Briefly: SPR; 1 mM ATP (printed 0.83 min-1).
Series [7] deals with the molecule itself. Description: SPR; 1 mM ATPγS (printed 0.18 min-1).
Series [8] concerns the molecule itself. Briefly: SPR; ATP; printed as 0.067 min-1.
Series [9] concerns the molecule itself. Description: SPR; 1 mM ATP (printed 0.067 min-1).

Take `CNc1ccccc1C(=O)O[C@H]1[C@@H](O)[C@H](n2cnc3c(N)ncnc32)O[C@@H]1COP(=O)(O)OP(=O)(O)O` [mant-ADP]: in the series on MipZ [1] (WT MipZ), the “average lifetime (τ = 1/koff) of the MipZ⋅nucleotide complex” value is recorded as “about 0.3 s”; the on-rate constant (kon) (usually the second-order rate constant of association) was 118000 M⁻¹ s⁻¹; the Kd (as a rule, the equilibrium constant for the complex coming apart) was 26 µM; the koff – broadly, the rate constant with which the complex falls apart – was 3.1 s⁻¹. For the same molecule, in the series with MipZ K13A, the koff was 3.5 s⁻¹, the on-rate (kon) came to 86000 M⁻¹ s⁻¹ and the Kd is 41 µM. In the series with MipZ G14V, the koff was found to be 0.9 s⁻¹, the on-rate constant (kon) came out at 205000 M⁻¹ s⁻¹ and the Kd was 4.5 µM. In addition, in the series on MipZ-D42A [2], the koff was 3.8 s⁻¹, the kon amounted to 55000 M⁻¹ s⁻¹ and the equilibrium dissociation constant (Kd) was 69 µM.

In the case of `CNc1ccccc1C(=O)O[C@H]1[C@@H](O)[C@H](n2cnc3c(N)ncnc32)O[C@@H]1COP(=O)(O)OP(=O)(O)OP(=O)(O)O` [mant-ATP], the on-rate constant (kon) was 68000 M⁻¹ s⁻¹ in the series with MipZ [1] (WT MipZ); 56000 M⁻¹ s⁻¹ in the series on MipZ K13A; 157000 M⁻¹ s⁻¹ in the series with MipZ G14V; 62000 M⁻¹ s⁻¹ in the series on MipZ-K18Q; 78000 M⁻¹ s⁻¹ in the series with MipZ-D42A [2]. Besides, the Kd at MipZ [1] (WT MipZ) is 31 µM; at MipZ K13A, 38 µM; on MipZ G14V, 1.3 µM; at MipZ-K18Q (calculated KD = koff/kon), 121 µM; on MipZ-D42A [2], 58 µM. Moreover, the off-rate (koff) is 2.1 s⁻¹ in the series with MipZ [1] (WT MipZ); 2.1 s⁻¹ with MipZ K13A; 0.2 s⁻¹ in the series with MipZ G14V; 7.5 s⁻¹ in the series on MipZ-K18Q; 4.5 s⁻¹ with MipZ-D42A [2]. Moreover, the “pseudo-first order rate constant (kobs)” value in the series on MipZ [1] (mant-ATP 30 µM, MipZ 1 µM) was 4.7 s⁻¹.

B1: parSmt (dsDNA)
DNA 1: GAGGCTTGTTTGAGCTCAAACATCGG
DNA 2: CCGATGTTTGAGCTCAAACAAGCCTC
As to B1, the binding result with MipZ-D42A [3] and with MipZ [4] was “binds” in each case.

B2: MipZ (wild type), hexahistidine-tagged (natural protein)
chain: MAETRVIVVGNEKGGAGKSTIAVHLVTALLYGGAKVAVIDLDLRQRTSARFFENRRAWLDNKKIELPEPLALNLSDNDVALAERPEEEQVAGFEAAFARAMAECDFILIDTPGGDSAITRMAHGRADLVVTPMNDSFVDFDMLGTVDPVTLELTKPSLYSLTVWEGRKQRALSGQRQAMDWVVLRNRLATTEARNRKRLEDRLNALAKRVGFRIGPGLRDRVIYRELFPFGLTIADLSPQVRPVPVSLQHLAARQELRALMHSLGLSAYSGETMLAAQ
Turning to B2, the dissociation rate constant (koff) came out at 0.0138 s⁻¹ in series [5], 0.0138 s⁻¹ in series [6] and 0.003 s⁻¹ in [7].

B3: MipZ-D42A, hexahistidine-tagged (natural protein)
chain: MAETRVIVVGNEKGGAGKSTIAVHLVTALLYGGAKVAVIDLALRQRTSARFFENRRAWLDNKKIELPEPLALNLSDNDVALAERPEEEQVAGFEAAFARAMAECDFILIDTPGGDSAITRMAHGRADLVVTPMNDSFVDFDMLGTVDPVTLELTKPSLYSLTVWEGRKQRALSGQRQAMDWVVLRNRLATTEARNRKRLEDRLNALAKRVGFRIGPGLRDRVIYRELFPFGLTIADLSPQVRPVPVSLQHLAARQELRALMHSLGLSAYSGETMLAAQ
In the case of B3, the dissociation rate constant (koff) in series [8] and in series [9] was 0.00112 s⁻¹ throughout.

B4: parSWT (dsDNA)
DNA 1: GAGGCTTGTTTCACGTGAAACATCGG
DNA 2: CCGATGTTTCACGTGAAACAAGCCTC
B4: the binding result with MipZ-D42A [3] and in the series with MipZ [4] was “binds” in each case.

B5: ran1 (dsDNA)
DNA 1: GAGGCAGACTAGATCTTCTAGTTCGG
DNA 2: CCGAACTAGAAGATCTAGTCTGCCTC
Take B5: the binding result in the series with MipZ-D42A [3] and with MipZ [4] was “binds” in each case.
